Data: patent US5792444A, “Labeled chemotactic peptides to image focal sites of infection or inflammation” (The General Hospital Corporation, priority 1993, dated 1998)
Where a SMILES comes first, the peptide text is derived from it. [ ]: non-standard residue; d: D form. The star is where a group is joined. HYNIC = NNc1ccc(C(=O)*)cn1; Ac6c = NC1(C(=O)O)CCCCC1; Nle = CCCC[C@H](N)C(=O)O; For = O=C*

Columns and labels:
E. coli infection = tested on: E. coli infection; parameters: species or system New Zealand white rabbits; conditions: rabbit, in vivo
Method: In order to determine the feasibility of using radiolabeled chemotactic peptides for infection localization in animals that are sensitive to the neutropenic effects of these agents, imaging studies were performed in rabbits with focal E. coli infections. High specific activity ^99m Tc-labeled chemotactic peptide was used in these studies. Six male New Zealand white rabbits weighing 2-3 kg were anesthetized with ketamine and xylazine (15.0 and 1.5 mg/kg) and injected in the left posterior thigh muscle with a 1.0 mL suspension of approximately 2×10^9 E. coli. […] Images were recorded for a preset time of 5 minutes/view with a 15% window centered to include the 140 KeV photopeak of ^99m Tc. […]
After acquiring the final images, the animals were sacrificed by pentobarbital overdose and samples of blood, heart, lung, liver, spleen, kidney, stomach, intestine, testes, bone, marrow, normal skeletal muscle, infected skeletal muscle, and pus were weighed and radioactivity was measured as described above. To correct for radioactive decay, aliquots of the injected doses were counted simultaneously. The results were expressed as percent injected dose per gram. […] The cells were washed with 0.9% NaCl and the residual radioactivity in the cells and supernatant measured. […]

[1] = target: T1, chemoattractant receptor on human PMN's (Homo sapiens, UniProt P21462); test: For-MLF receptor binding assay (For-ML[3H]F displacement); conditions: 15 nM For-ML[3H]F, 45 min, 24° C.
T1 construct: endogenous in cells; host or cells: isolated human PMN's (neutrophils) from healthy volunteers, intact cells
T1 sequence (P21462 1-350): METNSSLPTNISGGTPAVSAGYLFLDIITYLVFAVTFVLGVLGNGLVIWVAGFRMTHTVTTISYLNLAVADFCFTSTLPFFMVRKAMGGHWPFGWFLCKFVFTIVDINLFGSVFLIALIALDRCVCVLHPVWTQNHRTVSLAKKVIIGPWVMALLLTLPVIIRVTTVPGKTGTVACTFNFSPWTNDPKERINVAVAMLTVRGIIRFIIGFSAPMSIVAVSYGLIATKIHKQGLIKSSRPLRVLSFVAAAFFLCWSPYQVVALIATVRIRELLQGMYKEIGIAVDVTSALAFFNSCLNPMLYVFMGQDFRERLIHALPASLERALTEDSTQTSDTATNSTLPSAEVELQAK
Method: Following incubation, the cells were filtered onto glass fiber discs (Whatman GF/C; Whatman, Inc., Clifton, N.J.) which were then washed with 20 mL of ice cold incubation buffer. The filters were placed in scintillation vials with 10 mL of Safety-Solve (Research Products International Corp., Mt. Prospect, Ill.) and radioactivity was measured by liquid scintillation spectroscopy. Specific binding is defined as total binding minus nonspecific binding. Nonspecific binding is the amount of residual bound radioactivity in the presence of 10 μM unlabeled For-MLF.
(§1) The chemical purity of the final product was evaluated by TLC, HPLC, UV spectroscopy, mass spectroscopy, and amino acid analysis. Determinations of the EC50 's for binding to the chemoattractant receptor on human PMN's and superoxide generation were performed as described in Pike, M. C., and Snyderman, R., Methods Enzymol. 162:236-245 (1988); Pike, M. C., et al., Blood 67:909-913 (1986); and Fischman, A. J., et al., J. Nucl. Med. 32:483-491 (1991).

[2] = Example 1: biological activity (EC50) of peptide and DTPA derivative
Excerpt: The chemotactic peptide N-formyl-Nle-Leu-Phe-Nle-Tyr-Lys was synthesized using standard solid phase methods well-known in the art (Merrifield, R. B., J. Am. Chem. Soc. […]:2149-2154 (1963); Stewart, J. M., and Young, J. D., Solid Phase Peptide Synthesis, W. H. Freeman & Company, San Francisco, Calif. (1969)). The epsilon amino group of the C-terminal lysine was modified with DTPA using a cyclic anhydride. […] The peptide was readily radiolabeled with ^111 In.

sterile inflammation = tested on: sterile inflammation; parameters: species or system Rhesus monkeys; conditions: rhesus monkey, in vivo
Method: Two adult female Rhesus monkeys weighing approximately 10 kg were used in the imaging experiments. Since these animals had been used previously in imaging experiments with other radiopharmaceuticals, they had received numerous intramuscular injections in the right posterior thigh during the induction of anesthesia.
Under light ketamine anesthesia (5.5 mg/kg), the animals were injected intravenously through a leg vein with approximately 0.5 mCi ^99m -Tc-labeled peptide (<2.0 ng/kg). At 5 min, 30 min, 1 hr, and 19 hrs following injection of radiolabeled peptide, the animals were anesthetized with ketamine/xylazine (15.0 and 1.5 mg/kg) and whole body scintigrams were acquired using a large field of view gamma camera equipped with a parallel hole high resolution low energy collimator interfaced to a dedicated computer system (Technicare Gemini 700, Technicare 560, Solon, Ohio). […] At 5 minutes prior to injection and 1, 3, 5, and 15 minutes after injection 0.5 mL samples of blood were collected and the CBC was measured.
Regions of interest were drawn over: the whole animal, cardiac blood pool, lung, liver, spleen, kidney, intestine, bone, normal muscle, and inflamed muscle; and count densities (CPM/pixel) were calculated. The results were expressed as tissue-to-blood pool, % injected dose/gram (%ID/g) and target to background ratios (inflamed thigh/contralateral thigh).

human neutrophils = test: Assay of superoxide production (ferricytochrome C reduction); assay type: cell-based; conditions: 0.1 μM
Method: as §1

rabbit neutrophils = test: Lysozyme release in rabbit neutrophils; assay type: cell-based
Method: The peptide that was prepared and tested was formyl-Met-Acc^6 -Phe--OH.

neutrophils [3] = target: T2, neutrophils (Homo sapiens, UniProt P21462); test: Chemoattraction of human neutrophils; assay type: cell-based
T2 sequence (P21462 1-350): T1 sequence (P21462 1-350)
Method: (§2) In another preferred embodiment of the present invention, Y is 4-aminotetrahydropyran-4-carboxylic acid (Thp). […] The peptide that was prepared and tested was formyl-Thp-Leu-Phe-OMe.
The peptide that was prepared and tested was formyl-Met-Dpg-Phe--OH

neutrophils [4] = target: T2, neutrophils; test: Superoxide production by human neutrophils (backbone analog); assay type: cell-based
Method: as §2

neutrophils [5] = target: T2, neutrophils; test: Binding (Table I, Cell Biology Data)
Excerpt: Three non-DTPA derivatized peptides were included in the assay for comparison.

neutrophils [6] = target: T2, neutrophils; test: Free radicals agonist (neutrophil free radical chemiluminescence); assay type: cell-based; conditions: class symbol
neutrophils [7] = target: T2, neutrophils; test: Free radicals antagonist (inhibition of ForMLF stimulated free radical chemiluminescence); assay type: cell-based
neutrophils [8] = target: T2, neutrophils; test: MPO (myeloperoxidase assay) release; assay type: cell-based; conditions: pH5
Method: (§3) The procedure of Example 5 was repeated for additional CP's within the scope of the present invention. The results are shown in Table I. In the table, MPO is myeloperoxidase assay, a "-" sign means there was no effect at 30 μM, a "+" sign means there was a positive effect at 30 μM, and "N.T." means "Not

[9] = tested on: neutrophils / human umbilical vein endothelial cells; test: Adhesion agonist (neutrophil-endothelial cell adhesion assay); assay type: cell-based; conditions: class symbol; read-out: Adhesion Agonist EC50
Method: (§4) The unconjugated peptide iBoc-MLFK was evaluated in a neutrophil-endothelial cell adhesion assay. In this assay, neutrophils (5×10^5) labeled with 5-carboxyfluorescein diacetate were added into wells of a 48 well dish containing confluent human umbilical vein endothelial cells. The iBoc-MLFK peptide was added at a concentration of 10 μM 10 min prior to stimulation of neutrophils with 30 nM ForMLF. Percent adhesion was determined by washing off unattached neutrophils after an incubation period of 25 minutes. This peptide inhibited adhesion by 66% at this concentration. Subsequently, concentrations between 0.1-3.0 μM were examined. […] Inhibition of adhesion would reduce the infiltration of leukocytes, such as neutrophils, to a diseased site, thereby limiting the tissue damage associated with inflammation.
as §3

[10] = tested on: neutrophils / human umbilical vein endothelial cells; test: cells; assay type: cell-based; conditions: read-out: Adhesion Antagonist IC50
Method: as §4, §3

CSCC[C@H](NC=O)C(=O)N[C@@H](CC(C)C)C(=O)N[C@@H](Cc1ccccc1)C(=O)N[C@H](CCCCNC(=O)c1ccc(NN)nc1)C(N)=O [Example 99mTc-HP4, metal not drawn] (For-MLF[dK](HYNIC)-NH2)
percent residual circulating radioactivity that was cell associated (E. coli infection): approximately 25%
radioactivity of pus associated with WBC's (E. coli infection): approximately 90%

CCCC[C@H](NC=O)C(=O)N[C@@H](CC(C)C)C(=O)N[C@@H](Cc1ccccc1)C(=O)N[C@@H](CCCC)C(=O)N[C@@H](Cc1ccc(O)cc1)C(=O)N[C@@H](CCCCN)C(=O)O [For-NleLFNleYK, N-formyl-norleucyl-leucyl-phenylalanyl-norleucyl-tyrosyl-lysine] (For-[Nle]LF[Nle]YK-OH)
EC50 [1]: 0.001 µM
EC50 [2]: ~0.001 µM

CSCC[C@H](NC=O)C(=O)N[C@@H](CC(C)C)C(=O)N[C@@H](Cc1ccccc1)C(=O)NCCCCCCNC(=O)c1ccc(NN)nc1 [HP3, For-MLFNH(CH2)6 NH-HYNIC]
effects on WBC level (sterile inflammation): no significant effects

CCCCCCCCCCCCCC(=O)O[C@@H]1[C@@H](C)[C@@]2(O)[C@@H](C=C(CO)C[C@]3(O)C(=O)C(C)=C[C@@H]23)[C@@H]2C(C)(C)[C@]12OC(C)=O [PMA, phorbol myristate acetate]
maximal response of superoxide production (human neutrophils): 22.9 nmol 02^- produced/10^6 cells/10 min

CSCC[C@H](NC=O)C(=O)NC1(C(=O)N[C@@H](Cc2ccccc2)C(=O)O)CCCCC1 [formyl-Met-Acc^6 -Phe--OH] (For-Met-[Ac6c]-Phe-OH)
lysozyme release (rabbit neutrophils): potent inducer of lysozyme release

formyl-Thp-Leu-Phe-OMe
chemoattractant activity (neutrophils [3]): chemoattractant agent to human neutrophils
stimulation of superoxide production (neutrophils [4]): did not stimulate superoxide production

iBoc--MLF--O--SPNH [Example 38]
EC50 (neutrophils [5]): 0.15 to 5 µM
EC50 (neutrophils [6]): > 30 µM
IC50 (neutrophils [7]): 5 to 6 µM
EC50 (neutrophils [8]): 0.4 µM
EC50 [9]: < 30 µM
IC50 [10]: > 30 µM
